Source: ChEMBL document CHEMBL1138423, “TOMOCOMD-CARDD descriptors-based virtual screening of tyrosinase inhibitors: evaluation of different classification model combinations using bond-based linear indices” (Bioorg Med Chem, 2007)

Biological target: T1, Tyrosinase (Agaricus bisporus, UniProt O42713)
T1 sequence (O42713 whole entry): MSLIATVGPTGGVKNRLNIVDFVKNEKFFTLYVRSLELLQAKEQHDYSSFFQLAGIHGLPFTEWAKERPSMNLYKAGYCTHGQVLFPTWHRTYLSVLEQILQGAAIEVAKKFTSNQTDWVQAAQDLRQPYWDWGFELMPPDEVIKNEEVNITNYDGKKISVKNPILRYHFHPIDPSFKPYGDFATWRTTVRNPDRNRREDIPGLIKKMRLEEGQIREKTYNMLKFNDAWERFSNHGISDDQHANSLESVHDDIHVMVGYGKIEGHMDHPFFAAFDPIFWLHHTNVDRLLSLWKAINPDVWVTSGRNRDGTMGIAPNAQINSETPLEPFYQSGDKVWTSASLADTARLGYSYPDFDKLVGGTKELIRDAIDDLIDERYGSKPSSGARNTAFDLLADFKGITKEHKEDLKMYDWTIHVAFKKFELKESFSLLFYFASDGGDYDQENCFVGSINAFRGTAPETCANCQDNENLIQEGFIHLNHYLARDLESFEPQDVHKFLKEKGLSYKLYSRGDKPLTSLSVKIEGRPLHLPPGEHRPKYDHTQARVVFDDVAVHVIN
Assay: Inhibition of mushroom tyrosinase after 10 mins

Structure (SMILES) | IC50
CC[C@]1(O)CC[C@H]2[C@@H]3CCC4=CC(=O)C=C[C@]4(C)[C@H]3CC[C@@]21C | 3.46 µM
CC[C@]1(O)CC[C@H]2[C@@H]3CCC4=CC(=O)CC[C@]4(C)[C@H]3[C@H](O)C[C@@]21C | 1.72 µM
CC[C@]1(O)CC[C@H]2[C@@H]3CCC4=CC(=O)CC[C@]4(C)[C@H]3CC[C@@]21C | 1.53 µM
C#CC1(O)CC[C@H]2[C@@H]3CCC4=CC(=O)C=C[C@]4(C)[C@H]3CC[C@@]21C (single isomer, unassigned) | 7.89 µM
C#CC1(O)CC[C@H]2[C@@H]3CCC4=CC(=O)CC[C@]4(C)[C@H]3[C@H](O)C[C@@]21C (single isomer, unassigned) | 5.95 µM
C#CC1(O)CC[C@H]2[C@@H]3CCC4=CC(=O)CC[C@]4(C)[C@H]3CC[C@@]21C (single isomer, unassigned) [ETHISTERONE] | 2.61 µM
